How the values were obtained:
[1] = biological target: T1, prostanoide receptor subtype (human EP4) (Homo sapiens, UniProt P35408); experiment: Binding assay using expression of prostanoide receptor subtype ([3H]-PGE2, membrane fraction of transfected COS-7 cells); details: test compound 1.0 × 10^−7M; [3H]-PGE2 binding, COS-7 membrane, human EP4, 1 hour at 30° C.
T1 construct: expressed in transfected cells; host or cells: COS-7 cells (membrane fraction)
Experimental: Binding Assay Using Expression of Prostanoide Receptor Subtype
The membrane fraction was prepared using COS-7 cells transfected prostanoide receptor subtype (human EP4).
The standard assay mixture contained membrane fraction, [^3H]-PGE2 in final volume of 0.25 ml was incubated for 1 hour at 30° C. The reaction was terminated by that the mixture was rapidly filtered through a glass filter (GF/B). Then the filter was washed by 4ml of ice-cold buffer at two times. The radioactivity associated with the filter was measured by liquid scintillation counting.
In the experiment for competition of specific [^3H]-PGE2 was added at a concentration of 10 μM. The following buffer was used in all reactions.
Buffer: 20 mM Mes (pH 6.0), 1 mM EDTA, 10 mM MgCl2

[2] = test system: Mesangial Proliferative Glomerulonephritis Model; experiment: Mesangial proliferative glomerulonephritis model (OX-7 mAb i.v.), urinary protein; assay type: in vivo; details: 24 h urine 1 day after OX-7, female Wistar rats, Normal 40.8 ± 2.3, Control 127.9 ± 12.6
Experimental: Methods of Mesangial Proliferative Glomerulonephritis Model
Female Wistar rats, 6 weeks old were purchased from SLC (Shizuoka, Japan). Glomerulosclerosis model was produced by intravenous injections (i.v.) of the monoclonal antibody (mAb), MRC OX-7 (Dainippon Co. Ltd., Osaka, Japan). The 8 weeks old rats were divided into 4 groups (10 rats/group). Group 1 was injected saline instead of OX-7 as a normal group and treated with vehicle (0.5% methylcellulose solution) only. Group 2 was also treated with the vehicle only after the injection of 1 mg/kg OX-7 as a control group. Group 3 and Group 4 were treated with N-benzylsulfonyl-3-{[(1S)-2-(4,5-diphenyloxazol-2-yl)-2-cyclohexen-1-yl]methyl}benzamide (Example 2-75), as shown in the following Table. The compound was orally given every day from 5 days before to one day after i.v. administration of the antibody. Urine was collected for 24 hours from the rats in metabolic cages 1 day after injection of OX-7 and the amount of protein in each sample was determined by the biuret method using bovine serum albumine as the standard. All the rats were sacrificed 2 days after injection of OX-7. Blood biochemical analysis was carried out. [drawing 11]

T1 sequence (P35408 whole entry): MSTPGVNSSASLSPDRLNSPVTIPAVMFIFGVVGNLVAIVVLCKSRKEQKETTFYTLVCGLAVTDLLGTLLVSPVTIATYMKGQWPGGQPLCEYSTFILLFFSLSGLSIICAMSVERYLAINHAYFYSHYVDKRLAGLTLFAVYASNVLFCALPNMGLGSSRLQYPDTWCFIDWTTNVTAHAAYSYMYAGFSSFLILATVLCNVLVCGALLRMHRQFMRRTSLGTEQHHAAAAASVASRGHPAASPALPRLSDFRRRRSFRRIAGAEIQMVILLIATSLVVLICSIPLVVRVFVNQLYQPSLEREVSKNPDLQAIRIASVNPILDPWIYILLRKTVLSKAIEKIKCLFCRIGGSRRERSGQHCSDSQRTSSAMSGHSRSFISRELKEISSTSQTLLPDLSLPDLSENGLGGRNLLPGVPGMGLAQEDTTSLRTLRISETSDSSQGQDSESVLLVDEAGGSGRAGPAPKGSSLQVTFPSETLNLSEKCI

Row | SMILES | Inhibition (%) [1] | inhibition at 0.1 µM [1] [%] | Urinary Protein ([2]; 1 mg/kg orally every day from 5 days before to one day after OX-7) [mg/day] | Urinary Protein ([2]; 10 mg/kg orally every day from 5 days before to one day after OX-7) [mg/day]
1 | O=C(NCC(O)c1ccccc1)c1cccc(C[C@@H]2CCC[C@H]2c2nc(-c3ccccc3)c(-c3ccccc3)o2)c1 (stereo partly drawn) [Example 1-47, N-[(2-hydroxy-2-phenyl)ethyl]-3-{[(1S,2R)-2-(4,5-diphenyloxazol-2-yl)-1-cyclopentyl]methyl}benzamide] | ≧80% | – | – | –
2 | O=C(NCC(c1ccccc1)c1ccccc1)c1cccc(C[C@@H]2CCC[C@H]2c2nc(-c3ccccc3)c(-c3ccccc3)o2)c1 [Example 1-50, N-(2,2-diphenylethyl)-3-{[(1S,2R)-2-(4,5-diphenyloxazol-2-yl)-1-cyclopentyl]methyl}benzamide] | – | ≥ 80 | – | –
3 | O=C(NOCc1ccccc1)c1cccc(C[C@@H]2CCCC=C2c2nc(-c3ccccc3)c(-c3ccccc3)o2)c1 [Example 2-46, N-benzyloxy-3-{[(1S)-2-(4,5-diphenyloxazol-2-yl)-2-cyclohexen-1-yl]methyl}benzamide] | – | ≥ 80 | – | –
4 | O=C(NS(=O)(=O)Cc1ccccc1)c1cccc(C[C@@H]2CCCC=C2c2nc(-c3ccccc3)c(-c3ccccc3)o2)c1 [Example 2-75, N-benzylsulfonyl-3-{[(1S)-2-(4,5-diphenyloxazol-2-yl)-2-cyclohexen-1-yl]methyl}benzamide] | – | ≥ 80 | 98.2 ± 20.9 | 66.4 ± 6.9

Source: US6437146B1, “Oxazole compounds as prostaglandin e2 agonists or antagonists” (Fujisawa Pharmaceutical Co., Ltd., priority 1998, dated 2002)
